Test results reported in US20210052621A1, “METHODS FOR TREATING FLAVIVIRUSES AND ZIKA INFECTIONS” (THE REGENTS OF THE UNIVERSITY OF CALIFORNIA, priority 2017, published 2021).
Entries after “also recorded” stand apart in the source; their conditions may differ. Structures can show the parent of a compound that is named as a salt.

Each compound was assayed on Zika virus in 293 T cells (assay: Dose dependent inhibition of Zika virus in 293 T cells, IC50 calculated). Details: MOI of 5, different concentration of drugs.
Assay type: cell-based
Experimental: FIGS. 2A-2D. […] FIG. 2A—Lopinavir. FIG. 2B—Daclatasvir. FIG. 2C—Oxyclozanide. FIG. 2D—Rafoxanide.
Conditions: Zika virus in 293 T cells at the MOI of 5 using different concentration of drugs. IC50 was calculated.

For `O=C(Nc1ccc(Oc2ccc(Cl)cc2)c(Cl)c1)c1cc(I)cc(I)c1O` [Rafoxanide], which “Dose dependent inhibition of Zika virus” value is on record?
The value was “Dose dependent inhibition”.

Which “Dose dependent inhibition of Zika virus” value does the source give for `O=C(Nc1cc(Cl)cc(Cl)c1O)c1c(O)c(Cl)cc(Cl)c1Cl` [Oxyclozanide] here?
The value was “Dose dependent inhibition”.

How did the “Dose dependent inhibition of Zika virus” value turn out when `Cc1cccc(C)c1OCC(=O)N[C@@H](Cc1ccccc1)[C@@H](O)C[C@H](Cc1ccccc1)NC(=O)[C@H](C(C)C)N1CCCNC1=O` [Lopinavir, (2S)—N-[(2S,4S,5S)-5-[2-(2,6-dimethylphenoxy)acetamido]-4-hydroxy-1,6-diphenylhexan-2-yl]-3-methyl-2-(2-oxo-1,3-diazinan-1-yl)butanamide] was run?
The value was “Dose dependent inhibition”.

Each compound was assayed on ZIKA in Vero cells (assay: Screening of additional compounds for ZIKA levels using Vero cells (viral RNA released, qRT-PCR)). Details: 10 μM, viral RNA released by qRT-PCR.
Assay type: cell-based, Zika virus
Experimental: FIG. 6. Screening of additional compounds for ZIKA levels using Vero cells (in 10 μM concentration). Methods of screening were as described herein. Viral RNA released was analyzed by qRT-PCR for ZIKA. Compounds (left to right): control, berberine, fluoxetine, formoterol, genistine, U0126, dibucaine, pirlindole, suramin, mycophenolic acid, polyhydroxyalkanoates, (PHA) and niclosamide.
FIG. 7. Screening of additional compounds for ZIKA levels using Vero cells (in 10 μM concentration) as described for FIG. 6. Compounds (left to right): clomiphene, amphotericin B, and toremifene.
FIG. 8. Screening of additional compounds for ZIKA levels using Vero cells (in 10 μM concentration) as described for FIG. 6.
FIG. 6 depicts ZIKV levels as determined by qRT-PCR for ZIKA in Vero cells at 10 μM concentration (left to right) of control, berberine, fluoxentine, formoterol, genistine, U0126, dibucaine, pirlindole, suramin, mycophenolic acid, PHA, and niclosamide.
FIG. 7 depicts dose response studies on ZIKV levels for clomiphene, amphotericin B, and toremifene.
FIG. 8 depicts ZIKV levels after administration of various agents. […] Zidovudine. Acyclovir. Drostanolone Propionate, Dapivirine (TMC120), Tilorone hydrochloride, and Docosanol.

For `Cc1cn([C@H]2C[C@H](N=[N+]=[N-])[C@@H](CO)O2)c(=O)[nH]c1=O` [Zidovudine, 3′-deoxy-3′-azido-thymidine], which “ZIKV levels / ZIKV load (Hits)” value is on record?
Its value is “reduce ZIKV load”.

For `CCCCCCCCCCCCCCCCCCCCCCO` [Docosanol], which “ZIKV levels / ZIKV load (Hits)” value is on record?
The value was “reduce ZIKV load”.

Which “ZIKV levels / ZIKV load (Hits)” value does the source give for `Cc1cc(C)c(Nc2ccnc(Nc3ccc(C#N)cc3)n2)c(C)c1` [Dapivirine (TMC120), 4-{[4-(mesitylamino)-2-pyrimidinyl]amino}benzonitrile] here?
The value was “reduce ZIKV load”.

How did the “ZIKV levels / ZIKV load (Hits)” value turn out when `CCN(CC)CCOc1ccc2c(c1)C(=O)c1cc(OCCN(CC)CC)ccc1-2.Cl` [Tilorone hydrochloride, 2,7-Bis(2-diethylaminoethoxy)fluoren-9-one hydrochloride] was run?
Its value is “reduce ZIKV load”.

With `Nc1nc2c(ncn2COC(CO)CO)c(=O)[nH]1` [Ganciclovir, 9-(1,3-dihydroxy-2-propoxymethyl)guanine] as the compound, how does the “ZIKV levels / ZIKV load (Hits)” value read?
Its value is “reduce ZIKV load”.

How did the “ZIKV levels / ZIKV load (Hits)” value turn out when `CCN(CC)CCOC(=O)c1ccc(N)cc1` [Procaine hydrochloride, 4-amino-, 2-(diethylamino) ethyl ester monohydrochloride] was run?
The value was “reduce ZIKV load”.

Each compound was assayed on ZIKA in 293 cells (assay: ZIKA inhibition in 293 cells visualized by immune staining). Details: 20 μM.
Assay type: cell-based, Zika virus
Excerpt: FIGS. 9A-9K. […] Drugs: mock (FIG. 9A), DMSO (FIG. 9B), PHA-690509 (FIG. 9C), formoterol (FIG. 9D), fluoxetine (FIG. 9E), genistein (FIG. 9F), U0126 (FIG. 9G), berberine (FIG. 9H), dibucaine (FIG. 9I), pirlindole (FIG. 9J), and suramin (FIG. 9K). Left panels: DAPI; right panels: ZIKV.
Agents in order (top to bottom): mock, DMSO, PHA-690509, formoterol, fluoxetine, genistein, U0126, berberine, dibucaine, pirlindole, and suramin.

`COc1ccc(CC(C)NCC(O)c2ccc(O)c(NC=O)c2)cc1` (centres unmarked) [formoterol] was tested. Which “ZIKA inhibition visualized by immune staining” value (shortened to “ZIKA inhibition visualized”) did it give?
The value was “ZIKA inhibition”.

Which “ZIKA inhibition visualized” value does the source give for `CCCCOc1cc(C(=O)NCCN(CC)CC)c2ccccc2n1` [dibucaine] here?
Its value is “ZIKA inhibition”.

How did the “ZIKA inhibition visualized” value turn out when `CC(=O)Nc1ccc([C@H](C)C(=O)Nc2ncc(C(C)C)s2)cc1` [PHA-690509] was run?
Its value is “ZIKA inhibition”.

How did the “ZIKA inhibition visualized” value turn out when `COc1ccc2cc3[n+](cc2c1OC)CCc1cc2c(cc1-3)OCO2` [berberine] was run?
The value was “ZIKA inhibition”.

Which “ZIKA inhibition visualized” value does the source give for `N#CC(=C(/N)Sc1ccccc1N)/C(C#N)=C(\N)Sc1ccccc1N` [U0126] here?
The value was “ZIKA inhibition”.

`O=c1c(-c2ccc(O)cc2)coc2cc(O)cc(O)c12` [genistein] was tested. Which “ZIKA inhibition visualized” value did it give?
Its value is “ZIKA inhibition”.

With `Cc1ccc2c(c1)c1c3n2CCNC3CCC1` (centres unmarked) [pirlindole] as the compound, how does the “ZIKA inhibition visualized” value read?
Its value is “ZIKA inhibition”.

For `Cc1ccc(C(=O)Nc2ccc(S(=O)(=O)O)c3cc(S(=O)(=O)O)cc(S(=O)(=O)O)c23)cc1NC(=O)c1cccc(NC(=O)Nc2cccc(C(=O)Nc3cc(C(=O)Nc4ccc(S(=O)(=O)O)c5cc(S(=O)(=O)O)cc(S(=O)(=O)O)c45)ccc3C)c2)c1` [suramin, 8,8′-{Carbonylbis[imino-3,1-phenylenecarbonylimino(4-methyl-3,1-phenylene)carbonylimino]}di(1,3,5-naphthalenetrisulfonic acid)], which “ZIKA inhibition visualized” value is on record?
Its value is “ZIKA inhibition”.

For `CNCCC(Oc1ccc(C(F)(F)F)cc1)c1ccccc1` (centres unmarked) [fluoxetine, N-methyl-3-phenyl-3-[4-(trifluoromethyl)phenoxy]propan-1-amine], which “ZIKA inhibition visualized” value is on record?
Its value is “ZIKA inhibition”.

What follows are compounds tested on ZIKV in human microglial cell line (assay: ZIKV replication in microglia treated with nucleoside metabolic inhibitors (RT-qPCR, immunohistochemistry)). Details: MOI of 1, 1 μM and 10 μM, 48 hpi.
Assay type: cell-based, Zika virus
Experimental: FIGS. 14A-14D. Nucleoside Metabolic Inhibitors Attenuate ZIKV Replication. (FIG. 14A) ZIKV replication assessed by RT-qPCR analysis 48 hours post-infection in mock, ZIKV only, ZIKV plus 1 μM floxuridine or ZIKV plus 10 μM floxuridine treated microglia. Data are presented as the mean±SEM of n=3. *p<0.05, **p<0.01 by t-test. (FIG. 14B) Immunohistochemistry of ZIKV gene expression in mock, ZIKV only, ZIKV plus 1 μM floxuridine (FUDX1) or ZIKV plus 10 μM floxuridine (FUDX10) treated microglia. Cells were stained with anti-flavivirus envelope protein (ZIKVE), and nuclei were visualized with Hoechst 33258. (FIG. 14C) ZIKV replication assessed by RT-qPCR analysis 48 hours post-infection in mock, ZIKV only, ZIKV plus fluorouracil or ZIKV plus 10 μM fluorouracil treated microglia. Data are presented as the mean±SEM of n=3. *p<0.05, **p<0.01 by t-test. […]
Since metabolic processes are the most dysregulated pathways during ZIKV infection at the transcriptome level, we hypothesized that inhibition of these pathways could be exploited for therapeutic effects. […] The effect of the antimetabolites floxuridine (FIGS. 14A-14B) and flurouracil (FIGS. 14C-14D) on ZIKV replication was assessed 48 hpi at the RNA and protein level by RT-qPCR and immunohistochemistry, respectively.
Drug Treatment. […] ZIKV RNA was quantified by using specific primers by SYBR Green PCR Master Mix (Bio-Rad) using a Roche LightCycler 480. […]

`O=c1[nH]cc(F)c(=O)[nH]1` [flurouracil] was tested. Which “ZIKV replication (RT-qPCR and immunohistochemistry)” value did it give?
The value was “affected ZIKV”.

`O=c1[nH]c(=O)n([C@H]2C[C@H](O)[C@@H](CO)O2)cc1F` [floxuridine] was tested. Which “ZIKV replication (RT-qPCR and immunohistochemistry)” value did it give?
The value was “inhibited ZIKV more efficiently in a dose dependent manner than flurouracil; also recorded: dose-dependent inhibition of ZIKV replication; also recorded: abrogated ZIKV replication”.
